Test results: patent EP0489404A2, “Method of treating shock using a potassium channel activator” (E.R. SQUIBB & SONS, INC., priority 1990, dated 1992)

How the values were obtained:
[1] = tested on: Ischemic Isolated Rat Heart; assay: Globally ischemic isolated perfused rat heart (Langendorff), protective effect; set-up: species or system Male Sprague-Dawley rats; LDH (Lactate Dehydrogenase Release), Reperfusion (Post-Ischemic Event): unit not given here; conditions: 10 µM; for FLOW (coronary flow), Pre-ischemic Event (Post Drug) / HR (Heart Rate), Pre-ischemic Event (Post Drug) / LVDP (Left Ventricular Developed Pressure), Pre-ischemic Event (Post Drug): after 10 minutes drug treatment, n = 4; for FLOW (coronary flow), Pre-ischemic Event (Post Drug) / HR (Heart Rate), Pre-ischemic Event (Post Drug) / LVDP (Left Ventricular Developed Pressure), Pre-ischemic Event (Post Drug) / DP (Double Product), Pre-ischemic Event (Post Drug): before ischemia; for DP (Double Product), Pre-ischemic Event (Post Drug) / DP (Double Product), Reperfusion (Post-Ischemic Event): HR x LVDP divided by 1000; for DP (Double Product), Pre-ischemic Event (Post Drug): lower = more cardiodepressant; for FLOW (coronary flow), Reperfusion (Post-Ischemic Event) / HR (Heart Rate), Reperfusion (Post-Ischemic Event) / LVDP (Left Ventricular Developed Pressure), Reperfusion (Post-Ischemic Event) / DP (Double Product), Reperfusion (Post-Ischemic Event) / LDH (Lactate Dehydrogenase Release), Reperfusion (Post-Ischemic Event): occlusion 25 minutes, reperfusion 30 minutes; for DP (Double Product), Reperfusion (Post-Ischemic Event): higher = more cardioprotective; for LDH (Lactate Dehydrogenase Release), Reperfusion (Post-Ischemic Event): lower = greater cardioprotection
Text: Grover et al., "Dissociation of Cardiodepression from Cardioprotection with Calcium Antagonists: Diltiazem Protects Ischemic Rat Myocardium with a Lower Functional Cost as Compared with Verapamil and Nifedipine", Journal of Cardiovascular Pharmacology; pages 331-340, Vol. 14, No. 2 (1989), describe a model for testing globally ischemic, isolated rat hearts. This model is expected to be a reliable indicator of protection since the laboratory-induced isolation and ischemic event including perfusion with a cardioplegic solution, reasonably duplicates the environment and conditions for the heart during and after a shock or trauma episode. Grover et al. express the efficacy of protective agents as the amount of lactate dehydrogenase (LDH) release and post-ischemic cardiac function. Lactate dehydrogenase is an enzyme released in the heart during an ischemic event and is an index of cardiac cell necrosis. In the Grover et al. model, this is measured during reperfusion and an agent which provides for lower release levels of LDH is considered to offer greater cardioprotection since lower LDH indicates a smaller infarct size. Cardiac function is determined using the double product (DP) of heart rate times the left ventricular developed pressure (LVDP) divided by 1,000.
The lower the value for DP before the ischemic isolation of the heart for a given agent, the more cardiodepressant it is considered to be and the higher the value of DP is during reperfusion, the more cardioprotective the agent is.
Male Sprague-Dawley rats (450-550 g) were used in all experiments. The rats were anesthetized using 30 mg/kg sodium pentobarbital (i.p.). They were intubated and then treated with i.v. heparin (1000 U/kg). While being mechanically ventilated, their hearts were perfused in situ via retrograde cannulation of the aorta. The hearts were then excised and quickly moved to a Langendorff apparatus where they were perfused with Krebs-Henseleit bicarbonate buffer (112 mM […], 25 mM NaHCO₃, 5 mM KCl, 1.2 mM MgSO₄, 1 mM KH₂PO₄, 1.25 mM CaCl₂, 11.5 mM dextrose, and 2 mM pyruvate bubbled with 95% O₂ - 5% CO₂) at a constant pressure (75 mm Hg). A water filled latex balloon attached to a metal cannula was then inserted into the left ventricle and connected to a Statham pressure transducer for measurement of left ventricular pressure. The hearts were allowed to equilibrate for 15 minutes at which time end diastolic pressure (EDP) was adjusted to 5 mm Hg and this was maintained for 5 minutes. Pre-ischemia or pre-drug function, heart rate and coronary flow (extracorporeal electromagnetic flow probe, Carolina Medical Electronics, King, N.C.) were then measured. Cardiac function was determined using the double product of heart rate (HR) X left ventricular developed pressure (LVDP) divided by 1000. Cardiac temperature was maintained throughout the experiment by submerging the hearts in 37°C buffer which was allowed to accumulate in a stoppered, heated chamber.
Once the baseline measurements were taken, the hearts were treated with 10 µM cromakalim, compounds C', C'', E', E'', F', F'' (n = 4 each) or with vehicle buffer (0.01% DMSO, n = 7). All of these hearts were treated with their respective drugs or vehicle for ten minutes. At this time, post-drug cardiac function and flow were measured and then the hearts were made globally ischemic by shutting off the buffer perfusion. The ischemia was maintained for 25 minutes, the hearts were then reperfused with nondrug treated buffer. Reperfusion was maintained for a total of 30 minutes and at this time reperfusion function and flow were again determined.

rat aorta = assay: Inhibition of agonist-induced constriction in rat aorta (vasodilation, non-ischemic tissue); conditions: concentration inhibiting agonist-induced constriction by 50 percent, normal
Text: Also included in the TABLE are the IC₅₀(m) values for rat aorta. The IC₅₀ (rat aorta) value is the concentration of the particular compound which inhibits agonist-induced constriction in rat aorta by 50 percent. Thus, the lower values indicate greater vasodilation and it should be noted that these values are for normal, i.e., non-ischemic, tissue. It can be seen that cromakalim with an IC₅₀ of 5.7 x 10⁻⁸ m is a relatively potent vasodilator in non-ischemic tissue.

In the case of `CC1(C)Oc2ccc(C#N)cc2[C@@H](NC(=NC#N)Nc2ccccc2)[C@@H]1O` [C'"], the “FLOW (coronary flow), Pre-ischemic Event (Post Drug)” value (shortened to “FLOW (coronary flow) … (Post Drug)”) [1] is reported as 15.2, the HR (Heart Rate), Pre-ischemic Event (Post Drug) [1] is reported as 244 beats/min and the “LVDP (Left Ventricular Developed Pressure), Pre-ischemic Event (Post Drug)” value (“LVDP … (Post Drug)” below) [1] is reported as 134 mmHg. The “FLOW (coronary flow) … (Post Drug)” value ([1]; listed as C") was 20.4, the HR (Heart Rate), Pre-ischemic Event (Post Drug) ([1]; listed as C") was 250 beats/min and the “LVDP … (Post Drug)” value ([1]; listed as C") was 121 mmHg. For the same molecule, the “DP (Double Product), Pre-ischemic Event (Post Drug)” value (from here on “DP (Double Product) … (Post Drug)”) [1] was 32.7, the “DP (Double Product) … (Post Drug)” value ([1]; listed as C") was 29.8 and the “FLOW (coronary flow), Reperfusion (Post-Ischemic Event)” value (from here on “FLOW (coronary flow), Reperfusion”) [1] was 13.2. For the same molecule, the HR (Heart Rate), Reperfusion (Post-Ischemic Event) [1] was 244 beats/min, the “LVDP (Left Ventricular Developed Pressure), Reperfusion (Post-Ischemic Event)” value (from here on “LVDP … (Post-Ischemic Event)”) [1] was 74 mmHg and the “DP (Double Product), Reperfusion (Post-Ischemic Event)” value (shortened to “DP (Double Product), Reperfusion”) [1] was 18.2. For the same molecule, the “DP (Double Product), Reperfusion” value ([1]; listed as C") was 14.8, the “FLOW (coronary flow), Reperfusion” value ([1]; listed as C") was 10.1 and the HR (Heart Rate), Reperfusion (Post-Ischemic Event) ([1]; listed as C") was 240 beats/min. For the same molecule, the “LVDP … (Post-Ischemic Event)” value ([1]; listed as C") was 62 mmHg, the “LDH (Lactate Dehydrogenase Release), Reperfusion (Post-Ischemic Event)” value (from here on “LDH (Lactate Dehydrogenase Release)”) [1] was 10.41 and the “LDH (Lactate Dehydrogenase Release)” value ([1]; listed as C") was 9.88. It also gave an IC50 (rat aorta) of 1370 nM and an IC50 (rat aorta; listed as C") of 447 nM.

`CC1(C)Oc2ccc(C#N)cc2[C@@H](NC(=NC#N)Oc2ccccc2)[C@@H]1O` [F'] was tested, and the “FLOW (coronary flow) … (Post Drug)” value [1] was 16.0, the HR (Heart Rate), Pre-ischemic Event (Post Drug) [1] was 238 beats/min and the “LVDP … (Post Drug)” value [1] was 128 mmHg. For the same molecule, the “FLOW (coronary flow) … (Post Drug)” value ([1]; listed as F") was 28.3, the HR (Heart Rate), Pre-ischemic Event (Post Drug) ([1]; listed as F") was 239 beats/min and the “LVDP … (Post Drug)” value ([1]; listed as F") was 159 mmHg. For the same molecule, the “DP (Double Product) … (Post Drug)” value [1] was 30.5, the “DP (Double Product) … (Post Drug)” value ([1]; listed as F") was 38.02 and the “FLOW (coronary flow), Reperfusion” value [1] was 10.4. The HR (Heart Rate), Reperfusion (Post-Ischemic Event) [1] was 212 beats/min, the “LVDP … (Post-Ischemic Event)” value [1] was 28 mmHg and the “DP (Double Product), Reperfusion” value [1] was 6.2. The “DP (Double Product), Reperfusion” value ([1]; listed as F") was 14.72, the “FLOW (coronary flow), Reperfusion” value ([1]; listed as F") was 13.92 and the HR (Heart Rate), Reperfusion (Post-Ischemic Event) ([1]; listed as F") was 247 beats/min. The “LVDP … (Post-Ischemic Event)” value ([1]; listed as F") was 59 mmHg, the “LDH (Lactate Dehydrogenase Release)” value [1] was 21.7 and the “LDH (Lactate Dehydrogenase Release)” value ([1]; listed as F") was 10.65. The IC50 (rat aorta) was > 100000 nM and the IC50 (rat aorta; listed as F") was 4900 nM.

In the case of `CC1(C)Oc2ccc(C#N)cc2[C@@H](NC(=S)Nc2ccccc2)[C@@H]1O` [E'], the “FLOW (coronary flow) … (Post Drug)” value [1] is reported as 15.3, the HR (Heart Rate), Pre-ischemic Event (Post Drug) [1] is reported as 236 beats/min and the “LVDP … (Post Drug)” value [1] is reported as 141 mmHg. For the same molecule, the “FLOW (coronary flow) … (Post Drug)” value ([1]; listed as E") was 24.8, the HR (Heart Rate), Pre-ischemic Event (Post Drug) ([1]; listed as E") was 234 beats/min and the “LVDP … (Post Drug)” value ([1]; listed as E") was 128 mmHg. The “DP (Double Product) … (Post Drug)” value [1] was 32.75, the “DP (Double Product) … (Post Drug)” value ([1]; listed as E") was 30.06 and the “FLOW (coronary flow), Reperfusion” value [1] was 13.4. The HR (Heart Rate), Reperfusion (Post-Ischemic Event) [1] was 229 beats/min, the “LVDP … (Post-Ischemic Event)” value [1] was 55 mmHg and the “DP (Double Product), Reperfusion” value [1] was 14.83. For the same molecule, the “DP (Double Product), Reperfusion” value ([1]; listed as E") was 18.52, the “FLOW (coronary flow), Reperfusion” value ([1]; listed as E") was 17.56 and the HR (Heart Rate), Reperfusion (Post-Ischemic Event) ([1]; listed as E") was 230 beats/min. For the same molecule, the “LVDP … (Post-Ischemic Event)” value ([1]; listed as E") was 81 mmHg, the “LDH (Lactate Dehydrogenase Release)” value [1] was 13.46 and the “LDH (Lactate Dehydrogenase Release)” value ([1]; listed as E") was 8.77. For the same molecule, the IC50 (rat aorta) was 1710 nM and the IC50 (rat aorta; listed as E") was 805 nM.

`CC1(C)Oc2ccc(C#N)cc2C(N2CCCC2=O)C1O` (stereo not shown) [Cromakalim, cromakalim, reference compound] was tested, and the “FLOW (coronary flow) … (Post Drug)” value [1] was 23.9, the HR (Heart Rate), Pre-ischemic Event (Post Drug) [1] was 250 beats/min and the “LVDP … (Post Drug)” value [1] was 131 mmHg. For the same molecule, the “DP (Double Product) … (Post Drug)” value [1] was 33.0, the “FLOW (coronary flow), Reperfusion” value [1] was 13.9 and the HR (Heart Rate), Reperfusion (Post-Ischemic Event) [1] was 234 beats/min. The “LVDP … (Post-Ischemic Event)” value [1] was 87 mmHg, the “DP (Double Product), Reperfusion” value [1] was 20.5 and the “LDH (Lactate Dehydrogenase Release)” value [1] was 8.89. It also gave an IC50 (rat aorta; Rattus norvegicus) of 57 nM.
